± gives the standard deviation of the averaged measurements.
Legend:
HL-60 = test: cell viability (% survival relative to DMSO control); higher = less cytotoxic; conditions: 72 h
How it was run: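 For each screen, HL-60 cells in RPMI 1640 with 10% FBS carried either DMSO or 100 nM of one of three metabolic inhibitors while the full library was applied at five tenfold concentrations, 1–10,000 nM, in duplicate. Plates were 384-well and were kept 72 h at 37 °C, 5% CO2. Viability, measured by CellTiter-Glo, was normalised to wells with DMSO and with 10 μM proteasome inhibitor. Where area under the curve appears, it was fitted by four-parameter log-logistic models in drc and PharmacoGx.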

K-562 = test: cell viability (% survival relative to DMSO control, bortezomib = 0%); higher = less cytotoxic; conditions: 72 h
How it was run: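 Fifteen myeloid leukaemia cell lines (10 AML, 5 CML) were seeded at a density titrated to the linear growth range. They went into 384-well plates with compounds pre-printed at 1, 10, 100, 1000 or 10000 nM in duplicate. After 72 h at 37 °C with 5% CO2, viability was read by CellTiter-Glo luminescence. Values are percent survival, with vehicle set to 100% and a 10 µM positive control to 0%, averaged over the duplicates.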

[1] = 0.001 µM, co-treatment: AZD3965 100 nM
[2] = 0.001 µM, co-treatment: DMSO vehicle
[3] = 0.001 µM, co-treatment: GSK2194069 100 nM
[4] = 0.001 µM, co-treatment: pictilisib 100 nM
[5] = 0.01 µM, co-treatment: AZD3965 100 nM
[6] = 0.01 µM, co-treatment: DMSO vehicle
[7] = 0.01 µM, co-treatment: GSK2194069 100 nM
[8] = 0.01 µM, co-treatment: pictilisib 100 nM
[9] = 0.1 µM, co-treatment: AZD3965 100 nM
[10] = 0.1 µM, co-treatment: DMSO vehicle
[11] = 0.1 µM, co-treatment: GSK2194069 100 nM
[12] = 0.1 µM, co-treatment: pictilisib 100 nM
[13] = 1 µM, co-treatment: AZD3965 100 nM
[14] = 1 µM, co-treatment: DMSO vehicle
[15] = 1 µM, co-treatment: GSK2194069 100 nM
[16] = 1 µM, co-treatment: pictilisib 100 nM
[17] = 10 µM, co-treatment: AZD3965 100 nM
[18] = 10 µM, co-treatment: DMSO vehicle
[19] = 10 µM, co-treatment: GSK2194069 100 nM
[20] = 10 µM, co-treatment: pictilisib 100 nM

Row | Compound | cell viability (HL-60; [1]) [%] | cell viability (HL-60; [2]) [%] | cell viability (HL-60; [3]) [%] | cell viability (HL-60; [4]) [%] | cell viability (HL-60; [5]) [%] | cell viability (HL-60; [6]) [%] | cell viability (HL-60; [7]) [%] | cell viability (HL-60; [8]) [%] | cell viability (HL-60; [9]) [%] | cell viability (HL-60; [10]) [%] | cell viability (HL-60; [11]) [%] | cell viability (HL-60; [12]) [%] | cell viability (HL-60; [13]) [%] | cell viability (HL-60; [14]) [%] | cell viability (HL-60; [15]) [%] | cell viability (HL-60; [16]) [%] | cell viability (HL-60; [17]) [%] | cell viability (HL-60; [18]) [%] | cell viability (HL-60; [19]) [%] | cell viability (HL-60; [20]) [%] | cell viability (K-562; 1 nM) [%] | cell viability (K-562; 10 nM) [%] | cell viability (K-562; 100 nM) [%] | cell viability (K-562; 1000 nM) [%] | cell viability (K-562; 10000 nM) [%]
1 | CC(C)c1cc2c(c(O)c1O)[C@@]1(C(=O)O)CCCC(C)(C)[C@@H]1CC2 [Carnosic acid] | 98.3 ± 1.3 | 96.16 ± 0.17 | 101 ± 5.3 | 93.2 ± 7.5 | 101 ± 5.2 | 100.2 ± 0.6 | 89.4 ± 19 | 102 ± 2.3 | 117 ± 20 | 99.2 ± 2.8 | 105 ± 5.3 | 97.6 ± 10 | 98.58 ± 0.66 | 97.53 ± 0.66 | 99.3 ± 2.7 | 96.1 ± 1.2 | 100 ± 1.1 | 103 ± 2.5 | 95.3 ± 2.3 | 116 ± 11 | 105 | 93.4 | 89.4 | 87.4 | 83.2
2 | Cc1cn([C@H]2C[C@H](O)[C@@H](COP(=O)(O)OP(=O)(O)O)O2)c(=O)[nH]c1=O [Thymidine diphosphate] | 97.44 ± 0.59 | 101 ± 1.5 | 104.9 ± 0.34 | 105 ± 1.4 | 97.9 ± 1 | 100.1 ± 0.28 | 75.9 ± 32 | 94 ± 2.1 | 101 ± 0.85 | 97.7 ± 1.8 | 97.8 ± 6 | 106 ± 2.9 | 102 ± 2.8 | 101 ± 2.7 | 104 ± 6.7 | 111 ± 1.5 | 98.5 ± 4.8 | 95.1 ± 5.3 | 95.3 ± 9.4 | 89.1 ± 5.6 | 104 | 91.1 | 105 | 100 | 99.6
3 | O=c1oc2c(O)c(O)cc3c(=O)oc4c(O)c(O)cc1c4c23 [Benzoaric Acid] | 98.61 ± 0.51 | 102.3 ± 0.26 | 101 ± 0.64 | 106 ± 9.2 | 96.4 ± 5.9 | 100.2 ± 0.36 | 97.6 ± 3.1 | 104 ± 17 | 101 ± 5.7 | 99.9 ± 1.1 | 95.1 ± 1.7 | 101.4 ± 0.41 | 99.21 ± 0.23 | 102 ± 4.1 | 94.3 ± 0.58 | 99.2 ± 1.9 | 99.13 ± 0.98 | 100 ± 7.2 | 100 ± 3.9 | 96.3 ± 2.1 | 111 | 93.6 | 94.9 | 87.7 | 90.1
4 | COc1ccc(-c2ccccc2)cc1NS(=O)(=O)c1cc(Cl)cc(Cl)c1O | 99.4 ± 2.4 | 96.3 ± 2.8 | 93.5 ± 2.1 | 103 ± 10 | 102 ± 1.4 | 104.5 ± 0.32 | 99 ± 2.9 | 104 ± 4.6 | 99 ± 1.8 | 109 ± 14 | 109 ± 23 | 114 ± 19 | 96 ± 2.2 | 103 ± 3.8 | 92.7 ± 2.3 | 100 ± 4.6 | 99.06 ± 0.47 | 99 ± 3.5 | 98.5 ± 3.8 | 93.2 ± 18 | 86.8 | 105 | 126 | 87.9 | 86.9
5 | Cl.NC(CCC(=O)Nc1ccc([N+](=O)[O-])cc1)C(=O)O (stereo not given) [GPNA] | 96.99 ± 0.35 | 98.13 ± 0.34 | 99.6 ± 1.1 | 100.2 ± 0.41 | 97.1 ± 2.5 | 100 ± 4.6 | 104 ± 9.2 | 97.4 ± 1.8 | 103.3 ± 0.85 | 98.7 ± 5.5 | 99.4 ± 5.2 | 98.5 ± 1.1 | 102 ± 2.1 | 102 ± 4.2 | 85.4 ± 20 | 98.7 ± 7.6 | 94.3 ± 2.4 | 98.5 ± 2.3 | 96.8 ± 1.4 | 92.5 ± 1.4 | 108 | 96.3 | 100 | 109 | 120
6 | CC(C)c1nc(CN(C)C(=O)N[C@H](C(=O)N[C@@H](Cc2ccccc2)C[C@H](O)[C@H](Cc2ccccc2)NC(=O)OCc2cncs2)C(C)C)cs1 [Ritonavir] | 99.9 ± 2.7 | 101 ± 2.2 | 94.5 ± 6.6 | 105 ± 2 | 102 ± 1.6 | 103.3 ± 0.22 | 110 ± 17 | 101 ± 2.1 | 78.3 ± 26 | 94.5 ± 3.8 | 88 ± 24 | 97.5 ± 4.1 | 102 ± 3.5 | 87.4 ± 17 | 86.6 ± 30 | 93.9 ± 7.7 | 104 ± 3.9 | 105.8 ± 0.3 | 67.1 ± 3.1 | 99.2 ± 1.5 | 112 | 112 | 89 | 108 | 75.5
7 | CC(C)(C#N)c1cc(Cn2cncn2)cc(C(C)(C)C#N)c1 [Anastrozole] | 97.5 ± 3.3 | 101 ± 6.5 | 96.7 ± 12 | 104 ± 4.6 | 101.3 ± 0.95 | 100 ± 2.8 | 94.4 ± 5.3 | 92.3 ± 1.6 | 102 ± 1.2 | 101 ± 2.3 | 120 ± 3.8 | 106 ± 13 | 102 ± 1.9 | 101.7 ± 0.4 | 102 ± 1.1 | 108 ± 7.9 | 100 ± 6.9 | 102 ± 2.8 | 100 ± 13 | 101 ± 3.9 | 109 | 95.3 | 106 | 93.2 | 92.1
8 | COc1ccc(CNC(=O)Nc2ncc([N+](=O)[O-])s2)cc1 | 99.1 ± 14 | 103 ± 2.9 | 89.7 ± 16 | 84 ± 31 | 97.6 ± 3.6 | 94.7 ± 4.3 | 81 ± 3.1 | 103 ± 5.9 | 102 ± 4.4 | 99.35 ± 0.68 | 106 ± 3.5 | 106 ± 3.8 | 91.4 ± 3.9 | 102 ± 1.5 | 86.5 ± 5.7 | 96.3 ± 4.1 | 95.2 ± 1.6 | 107 ± 7.6 | 116 ± 7.2 | 105 ± 9.1 | 85.6 | 103 | 108 | 89.4 | 97.7
9 | O=C(O)CCCCC(CCSCc1ccccc1)SCc1ccccc1 (stereo not given) [CPI-613] | 102 ± 4.3 | 98.6 ± 2.1 | 97.55 ± 0.73 | 105 ± 4.5 | 97.3 ± 4.7 | 101 ± 3.1 | 101 ± 2.7 | 98.8 ± 8.4 | 98.6 ± 4.9 | 95.2 ± 9 | 89.4 ± 20 | 88.5 ± 24 | 104 ± 2.1 | 103 ± 9.6 | 104 ± 11 | 103 ± 13 | 105 ± 3.5 | 108 ± 6.2 | 107.3 ± 0.4 | 107 ± 2.6 | 94 | 90.4 | 102 | 89.2 | 107

— the supplement of paper PMC8671470
